In the OligoGym collection:
After the bases stand the sugars from the 5' end (letter, count) and the backbone: PS all phosphorothioate, else s phosphorothioate and o phosphodiester by linkage. Methylation of C is not given here. l = locked nucleic acid (LNA); d = 2'-deoxy (DNA)

Target: SNHG14
Conditions: ASO
[1] = Mouse Primary Neuronal Cell, 0.005 µM

Sequence | target mRNA inhibition (Human Neuronal Cell, 7.5 µM) [%] | target mRNA inhibition (Human Neuronal Cell, 0.2 µM) [%] | target mRNA inhibition (Human Neuronal Cell, 1 µM) [%] | other results
GTTTCCATCTACTATTAAT (sugars l1 d2 l2 d12 l2, PS) | 62 | – | – | –
GTTTCCATCTACTATTAAT (sugars ldldddddddddlldddll, PS) | 51 | – | – | –
TAAAATTATTTATACACCA (sugars l3 d1 l2 d9 l4, PS) | 59 | – | – | –
TAAAATTATTTATACACCA (sugars lddlllddddddldlllll, PS) | 30 | – | – | –
TAAAATTATTTATACACCA (sugars lldlldddddddldldlll, PS) | 47 | – | – | –
TAAAATTATTTATACACCA (sugars lllldlddddddllddlll, PS) | 31 | – | – | –
TAAAATTATTTATACACCAT (sugars lldddldddddddldlllll, PS) | 46 | – | – | –
TAAGCTCCATATTTAA (sugars l3 d10 l3, PS) | – | 3 | 12 | –
TAATCCCATACATCTAT (sugars l2 d11 l4, PS) | – | 50 | 61 | –
TACACAAATACTTAAATCA (sugars l4 d13 l2, PS) | – | 7 | 19 | –
TACACTTAATTATACTTCCA (sugars lddddldddddddldlddll, PS) | 60 | – | – | –
TACACTTAATTATACTTCCA (sugars lddldllddddddddlddll, PS) | 56 | – | – | –
TACATATTGTACTTCT (sugars l4 d10 l2, PS) | – | 18 | 23 | –
TACATCTCATACTTGC (sugars l2 d11 l3, PS) | – | – | – | target mRNA inhibition [1]: 96.5%
TACATCTCATACTTGC (sugars l3 d10 l3, PS) | – | 4 | -2 | target mRNA inhibition (Human Neuronal Cell, 5 µM): 12%; target mRNA inhibition [1]: 97.4%
TACATCTCATACTTGCT (sugars l2 d13 l2, PS) | – | 9 | 23 | target mRNA inhibition (Human Neuronal Cell, 5 µM): -10%; target mRNA inhibition [1]: 84.5%
TACATTGACACCTAAT (sugars l4 d10 l2, PS) | – | 19 | 17 | –
TACTCTGCAATACACC (sugars l1 d2 l2 d9 l2, PS) | 65 | – | – | –
TACTCTGCAATACACC (sugars l1 d3 l1 d7 l4, PS) | 63 | – | – | –
TACTCTGCAATACACC (sugars l2 d1 l2 d9 l2, PS) | 64 | – | – | –
TACTCTGCAATACACC (sugars l2 d10 l4, PS) | – | 50 | 55 | –
TACTCTGCAATACACCA (sugars l1 d3 l1 d10 l2, PS) | 54 | – | – | –

Sequence | target mRNA inhibition (Human Neuronal Cell, 7.5 µM) [%] | target mRNA inhibition (Human Neuronal Cell, 0.2 µM) [%] | target mRNA inhibition (Human Neuronal Cell, 1 µM) [%] | other results
TACTCTGCAATACACCA (sugars l2 d10 l1 d2 l2, PS) | 61 | – | – | –
TACTCTGCAATACACCA (sugars l2 d11 l4, PS) | – | 57 | 71 | –
TACTCTGCAATACACCA (sugars ldlddddddddddldll, PS) | 64 | – | – | –
TAGTCCTTCCTTTAACC (sugars l2 d13 l2, PS) | – | 20 | 16 | –
TATACCTTTCTTTAACCCTT (sugars l1 d15 l1 d1 l2, PS) | 58 | – | – | –
TATACCTTTCTTTAACCCTT (sugars lddldlddddddddddldll, PS) | 62 | – | – | –
TATAGCCATTCTATCT (sugars l4 d10 l2, PS) | – | 61 | 67 | –
TATCTCATGACCACCTA (sugars l2 d12 l3, PS) | – | 43 | 52 | –
TATCTTTCCATTTATTTCC (sugars l1 d2 l1 d13 l2, PS) | 41 | – | – | –
TATCTTTCCATTTATTTCC (sugars l2 d12 l1 d2 l2, PS) | 44 | – | – | –
TATTCTCAATTGCACTT (sugars l4 d11 l2, PS) | – | 46 | 61 | –
TATTGATATTTACTCT (sugars l2 d10 l4, PS) | – | 30 | 38 | –
TATTGATTCAATTCCCT (sugars l1 d2 l1 d10 l3, PS) | 72 | – | – | –
TATTGATTCAATTCCCT (sugars l1 d10 l1 d2 l3, PS) | 65 | – | – | –
TATTGATTCAATTCCCT (sugars l1 d12 l4, PS) | 57 | – | – | –
TATTGATTCAATTCCCT (sugars l2 d9 l1 d2 l3, PS) | 51 | – | – | –
TATTGATTCAATTCCCT (sugars l3 d9 l2 d1 l2, PS) | 65 | – | – | –
TATTTGTCACCAAACC (sugars l3 d10 l3, PS) | – | 23 | -2 | –
TCACCTAATAGCACCA (sugars l2 d10 l4, PS) | – | 60 | 69 | –
TCATCCCTCCAAGAAA (sugars l2 d12 l2, PS) | – | -16 | -28 | target mRNA inhibition (Human Neuronal Cell, 5 µM): -48%
TCCAAACTGTCTTCTAA (sugars l3 d12 l2, PS) | – | 36 | 23 | –
TCCAACATAGATCCTC (sugars l2 d10 l4, PS) | – | 52 | 65 | –

Sequence | target mRNA inhibition (Human Neuronal Cell, 7.5 µM) [%] | target mRNA inhibition (Human Neuronal Cell, 0.2 µM) [%] | target mRNA inhibition (Human Neuronal Cell, 1 µM) [%] | other results
TCCAACATAGATCCTCT (sugars l2 d11 l4, PS) | – | 45 | 55 | –
TCCATAGAATTCTTCA (sugars l4 d10 l2, PS) | – | 51 | 43 | –
TCCATTTATTTCCATTTAT (sugars ldlldddddddddldddll, PS) | 50 | – | – | –
TCCATTTATTTCCATTTAT (sugars llddlddddddddldldll, PS) | 40 | – | – | –
TCCATTTATTTCCATTTATT (sugars ldlldddddddddlddddll, PS) | 46 | – | – | –
TCCTATGTTAATACTT (sugars l3 d10 l3, PS) | – | 14 | 34 | –
TCCTCTGCTTATAACT (sugars l3 d11 l2, PS) | – | 51 | 77 | –
TCTCTAATCCTATTCC (sugars l4 d10 l2, PS) | – | 53 | 58 | –
TCTGTATACACCATCCC (sugars l2 d13 l2, PS) | 62 | – | – | –
TCTGTATACACCATCCCA (sugars lddddlddddddddldll, PS) | 61 | – | – | –
TCTTATCCTTGAATTTC (sugars l4 d11 l2, PS) | – | 37 | 33 | –
TCTTCAAGAATTCTCT (sugars l2 d10 l4, PS) | – | 44 | 46 | –
TCTTCAGCTTTCTAAAT (sugars l4 d11 l2, PS) | – | 5 | 24 | –
TCTTTAAGCTTCCCAC (sugars l2 d10 l4, PS) | – | 34 | 44 | –
TCTTTCCATTTATTTCCA (sugars l4 d12 l2, PS) | – | 53 | 60 | –
TCTTTCCATTTATTTCCAT (sugars l2 d3 l1 d11 l2, PS) | 54 | – | – | –
TCTTTCCATTTATTTCCAT (sugars l2 d13 l1 d1 l2, PS) | 42 | – | – | –
TCTTTCCATTTATTTCCATT (sugars l2 d3 l1 d12 l2, PS) | 47 | – | – | –
TCTTTCCATTTATTTCCATT (sugars l2 d4 l1 d10 l3, PS) | 57 | – | – | –
TCTTTCCATTTATTTCCATT (sugars l2 d13 l1 d2 l2, PS) | 42 | – | – | –
TCTTTCCATTTATTTCCATT (sugars l2 d14 l1 d1 l2, PS) | 46 | – | – | –
TGAACAACTTCTATCA (sugars l3 d10 l3, PS) | – | 17 | 16 | –

Sequence | target mRNA inhibition (Human Neuronal Cell, 7.5 µM) [%] | target mRNA inhibition (Human Neuronal Cell, 0.2 µM) [%] | target mRNA inhibition (Human Neuronal Cell, 1 µM) [%] | other results
TGTATATAACTATTCC (sugars l4 d10 l2, PS) | – | 21 | 20 | –
TGTTTATACCCTTTCCAA (sugars l1 d1 l2 d12 l2, PS) | 63 | – | – | –
TGTTTATACCCTTTCCAA (sugars l2 d2 l1 d11 l2, PS) | 64 | – | – | –
TGTTTATACCCTTTCCAA (sugars ldddldddddddddldll, PS) | 58 | – | – | –
TGTTTCCATCTACTATTA (sugars l1 d4 l1 d8 l4, PS) | 67 | – | – | –
TGTTTCCATCTACTATTA (sugars ldldddddddddddldll, PS) | 61 | – | – | –
TTACCTACATCTCATAC (sugars l2 d13 l2, PS) | – | 1 | -8 | target mRNA inhibition (Human Neuronal Cell, 5 µM): 19%; target mRNA inhibition [1]: 79%
TTACCTACATCTCATACT (sugars l2 d12 l4, PS) | – | -6 | -7 | target mRNA inhibition (Human Neuronal Cell, 5 µM): 16%; target mRNA inhibition [1]: 95.6%
TTACTCTGCAATACAC (sugars l3 d10 l3, PS) | – | 46 | 61 | –
TTACTCTGCAATACACC (sugars l2 d11 l4, PS) | – | 55 | 57 | –
TTAGTATACCCTTTAT (sugars l3 d10 l3, PS) | – | 28 | 20 | –
TTATACCTTTCTTTAACCCT (sugars ldddddddddddddldldll, PS) | 58 | – | – | –
TTATACCTTTCTTTAACCCT (sugars ldldddldddddddddddll, PS) | 64 | – | – | –
TTATAGCCATTCTATCT (sugars l1 d11 l2 d1 l2, PS) | 40 | – | – | –
TTATAGCCATTCTATCT (sugars l2 d1 l1 d11 l2, PS) | 62 | – | – | –
TTATAGCCATTCTATCT (sugars l2 d1 l2 d10 l2, PS) | 64 | – | – | –
TTATAGCCATTCTATCT (sugars l2 d2 l1 d10 l2, PS) | 64 | – | – | –
TTATAGCCATTCTATCT (sugars l3 d1 l1 d10 l2, PS) | 65 | – | – | –
TTATAGCCATTCTATCT (sugars ldddlddddddldldll, PS) | 5 | – | – | –
TTATAGCCATTCTATCT (sugars ldddlddddddldllll, PS) | 26 | – | – | –
TTATAGCCATTCTATCT (sugars lddllddddddldddll, PS) | 50 | – | – | –
TTATAGCCATTCTATCT (sugars ldldddddddddlldll, PS) | 45 | – | – | –
